Reference: article PMC12495326 (The Journal of Biological Chemistry, 2025)
pIC50: −log10 of the molar value.

Biological target: T1, recombinant hDHFR (human dihydrofolate reductase) (Homo sapiens, UniProt P00374)
T1 construct: gene DHFR
T1 sequence (P00374 1-187): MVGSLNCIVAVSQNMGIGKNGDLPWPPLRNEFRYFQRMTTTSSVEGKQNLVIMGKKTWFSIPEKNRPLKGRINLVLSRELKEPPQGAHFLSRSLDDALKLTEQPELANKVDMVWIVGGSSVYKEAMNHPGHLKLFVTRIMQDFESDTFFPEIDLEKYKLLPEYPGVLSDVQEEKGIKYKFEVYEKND
Experiment: in vitro DHFR enzyme activity assay, dose-response
Assay type: biochemical

## CCc1nc(N)nc(N)c1-c1cc(Cl)cc(Cl)c1 [WCDD114]
  pIC50: 6.85
